Measurements as given in US20220218729A1, “USE OF GINSENOSIDE M1 FOR TREATING CANCER” (priority 2019, published 2022).

What was measured:
Format in all cases: cell-based
[1] = tested on: human malignant melanoma A375.S2 cells; experiment: Colony formation assay (A375.S2); settings: M1 10, 20 and 40 μM, 10 days; FIG. 2
Procedure: (§1) Human malignant melanoma A375.S2 cell line was obtained from the American Type Culture Collection (ATCC, USA). A375.S2 cells were grown in minimum essential medium supplemented with 10% fetal bovine serum, 100 U/mL of penicillin, and 100 μg/mL of streptomycin (Life Technologies, USA). PC-3 cells (hormone-independent human prostate cancer cells) were cultured in Ham's F12K medium supplemented with 7% fetal bovine serum, 100 U/mL of penicillin, and 100 μg/mL of streptomycin (Life Technologies, USA). Cells were cultured at 37° C. in a 5% CO2 incubator.
(§2) Plate 500 cells per well into 6-well plates and incubated with different M1 concentrations (10, 20, and 40 μM) or vehicle for 10 days. Cells were fixed in 4% paraformaldehyde after washing with cold PBS twice, and stained with 0.5% crystal violet 10 min at room temperature.
To investigates the effect of M1 on the reduction of colony formation ability of melanoma cells, A375. S2 cells were subjected to colony formation assay with various concentration of M1.

[2] = tested on: human prostate cancer PC-3 cells; experiment: Wound healing assay (PC-3); settings: M1 20 or 40 μM, 24 h, vs vehicle; FIG. 8
Procedure: as §1
(§3) Cells were seeded at 6×10^5 into 6-well plates and incubated for 24 h. Then used a sterile 200-μl pipette tip to create a straight gap of constant width, and each well was washed with sterile PBS. Next, the cells were incubated with various concentrations of M1 (10, 20, and 40 μM) or vehicle. The cells were photographed at 0 and 24 h under a microscope at 100× magnification.
Next, we performed whether M1 reduces the migration ability by wound healing assay in PC-3 cells. Cells were seeded at 6×10^5 per 6-well plates in culture medium and were grown overnight at 37° C. in a 5% CO2 incubator. Each well was scratched with sterile 200-μl pipette tip in the cell monolayer, and washed with sterile PBS twice. […] The data are expressed as the means±SEM for three separate experiments. *p<0.05, ***p<0.005. […]

[3] = tested on: human prostate cancer PC-3 cells; experiment: Western blot of apoptosis-related proteins (PC-3); settings: PC-3, M1 10, 20 and 40 μM, 24 h, FIGS. 10A, 10B
Procedure: as §1
(§4) Plate 4×10^5 cells per well into 6-cm dish, and incubated with different concentrations of M1 (10, 20 and 40 μM), cisplatin (50 μM) or vehicle for 24 h. The cells were exacted by disruption in RIPA buffer (Sigma-Aldrich, Germany) in the presence of protease inhibitor cocktail. Each protein sample was run on a 12% SDS-PAGE gel and transferred to PVDF membrane, which was then incubated for 1 h at room temperature in blocking buffer and then overnight at 4° C. with primary antibodies against caspase-3, caspase-9 (Cell Signaling Technology, USA), Bax, Bcl-2 or β-actin (Santa Cruz, USA). The membrane was incubated for 1 h at room temperature with HRP-conjugated secondary antibodies. The proteins were detected using enhanced chemiluminescence reagent (GE, UK).
(§5) Furthermore, to investigate mechanisms underlying the apoptosis-inducing activity of M1, we detected Annexin V/PI double staining by flow cytometry and apoptosis related protein expression by Western blot. PC-3 cells were plate 2.5×10^5 per 6-well plates, and incubated with M1 (40 μM) or vehicle for 24 h. The cells were harvested by gently trypsinizing and wash with ice-PBS twice, then stained with Annexin V-FITC/PI apoptosis detection kit (BD Biosciences, USA) according to the manufacturer's instructions and measured using a flow cytometer within 1 hour. […] The data are expressed as the means±SEM for three separate experiments. ***p<0.005. (One-way ANOVA and subsequent Scheffe's test).

[4] = tested on: human prostate cancer PC-3 cells; experiment: Annexin V/PI apoptosis flow cytometry (PC-3); settings: M1 40 μM, 24 h, vs vehicle; FIG. 9
Procedure: as §1, §5

[5] = tested on: human prostate cancer PC-3 cells; experiment: Colony formation assay (PC-3); settings: M1 10, 20 and 40 μM, 10 days, dose-dependent, vs vehicle; FIG. 7
Procedure: as §1, §2
Seeding 500 cells per 6-well plates and treated for 10 days with different concentrations of M1 (10, 20, and 40 μM) or vehicle. The cells were fixed in 4% paraformaldehyde for 15 min, after washing with cold PBS twice, and stained with 0.5% crystal violet 10 min at room temperature. […] The data are expressed as the means±SEM for three separate experiments. *p<0.05, ***p<0.005. (One-way ANOVA and subsequent Scheffe's test).

[6] = tested on: human malignant melanoma A375.S2 cells; experiment: Annexin V/PI apoptosis flow cytometry (A375.S2); settings: 24 h, FIG. 4
Procedure: as §1
A375.S2 cells were seeded at 2.5×10^5 into 6-well plates, and incubated with M1 (40 μM), cisplatin (50 μM) or vehicle for 24 h. To perform apoptosis using an Annexin V-FITC/PI apoptosis detection kit (BD Biosciences, USA) according to the manufacturer's instructions, and then analyzed by flow cytometry (BD Biosciences).
(§6) To further investigate mechanism of action of M1, we used Annexin V/PI double staining by flow cytometry and crucial protein expression by Western blot analysis to measured targeting hallmarks of apoptosis.

[7] = tested on: human prostate cancer PC-3 cells; experiment: Cell viability, trypan blue exclusion (PC-3); settings: M1 10, 20 and 40 μM, 24 h, dose-dependent; FIG. 6
Procedure: as §1
(§7) Seeding cells (2.5×10^5 cells/well) in 6-well plates and incubated with different concentrations of M1 (10, 20 and 40 μM), cisplatin (50 μM) or vehicle for 24 h. Cells were detached by trypsinization and the cell numbers were counted by trypan blue exclusion method.
Plate human prostatic cancer cell line PC-3 2.5×10^5 per 6-well plates and cultured in Ham's F12K medium supplemented with 7% fetal bovine serum, 100 U/mL of penicillin, and 100 μg/mL of streptomycin (Life Technologies, USA). Cells were cultured overnight at 37° C. in a 5% CO2 incubator, and then treated with different concentrations of M1 (10, 20 and 40 μM) or vehicle for 24 h, and the cell numbers were counted by trypan blue exclusion method. […] The data are expressed as the means±SEM for three separate experiments. *p<0.05, **p<0.01. […]

[8] = tested on: human malignant melanoma A375.S2 cells; experiment: Wound healing assay (A375.S2); settings: M1 20 or 40 μM, 24 h, vs control; FIG. 3
Procedure: as §1, §3
To investigates the effect of M1 on the inhibition of migration ability of melanoma cells, A375.S2 cells were subjected to the wound healing assay with various concentration of M1.

[9] = tested on: human malignant melanoma A375.S2 cells; experiment: Cell viability, trypan blue exclusion (A375.S2); settings: 24 h, FIG. 1
Procedure: as §1, §7
To investigates the effect of M1 on the inhibition of human malignant melanoma cell growth, A375 cells were cultured with various concentration of M1.

[10] = tested on: human malignant melanoma A375.S2 cells; experiment: Western blot of apoptosis-related proteins (A375.S2); settings: A375.S2, M1 10, 20 and 40 μM, 24 h, FIGS. 5A, 5B
Procedure: as §1, §4, §6

Structure (SMILES) | numbers of colonies of A375.S2 cells [1] | cell migration ability of PC-3 cells [2] | Bax/Bc1-2 ratio ([3]; dose-dependent) | protein levels of caspase-9 ([3]; dose-dependent) | pro-caspase-3 protein expression [3] | pro-caspase-9 protein expression [3] | percentage of PC-3 cells with Annexin V/PI double staining [4] | colony formation ability of PC-3 cells [5] | percentage of A375.S2 cells with Annexin V/PI double staining ([6]; M1 40 μM) | cell numbers of PC-3 cells [7] | cell migration ability of A375.S2 cells [8] | cell numbers of A375.S2 cells ([9]; M1 10, 20 and 40 μM, vs control) | Bcl-2 protein expression ([10]; dose-dependent) | pro-caspase-3 protein expression ([10]; dose-dependent) | pro-caspase-9 protein expression ([10]; dose-dependent) | levels of caspase-3 [10] | levels of caspase-9 [10] | percentage of A375.S2 cells with Annexin V/PI double staining ([6]; cisplatin 50 μM) | cell numbers of A375.S2 cells ([9]; cisplatin 50 μM, positive control)
CC(C)=CCC[C@](C)(O[C@@H]1OC(CO)[C@@H](O)[C@@H](O)C1O)[C@H]1CC[C@]2(C)C1[C@H](O)CC1[C@@]3(C)CC[C@H](O)C(C)(C)C3CC[C@]12C (stereo partly drawn) [M1, 20-O-β-D-glucopyranosyl-20(S)-protopanaxadiol] | reduced dose-dependently | significantly decreased the cell migration ability | increased | increased | significantly decreased | significantly decreased | greatly increased the percentage | inhibited the colony formation ability | greatly increased the percentage | significantly decrease cell numbers | markedly decreased the cell migration ability | decreased the cell numbers | decrease | decrease | decrease | significantly increased | significantly increased | – | –
N.N.[Cl][Pt][Cl] [cisplatin, reference compound] | – | – | – | – | – | – | – | – | – | – | – | – | – | – | – | – | – | greatly increased the percentage | decreased the cell numbers
